# Assay results reported in PubChem BioAssay AID1963968 (Molecular Pharmacology Branch, DTP, NCI, 2024).
# Test system: 945468-187-T-J3-PDC spheroids with HUVEC/MSC, viability
# Assay: Anticancer human tumor 945468-187-T-J3-PDC patient-derived rectal carcinoma cell line growth inhibition [PI3K]
# Details: for IC50: curve of first compound; for viability, T/C: stronger effect = lower value
# Procedure, shortened: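 Tumor cells grown as multi-cell spheroids with HUVEC endothelial cells and MSC fibroblast-like stroma were treated with targeted agents combined with inavolisib, alpelisib, duvelisib or copanlisib. Doses fell in half-log steps from near clinical Cmax, else from 10 microM. Viability was measured.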
# 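Also: spheroids exposed to agents for 7 days before viability read.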
# 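For viability, T/C in this document: 100% = DMSO vehicle control viability.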
smiles,measurement,setting,value
CC(=O)c1c(C)c2cnc(Nc3ccc(N4CCNCC4)cn3)nc2n(C2CCCC2)c1=O + CC(Nc1ncnc2nc[nH]c12)c1cc2cccc(Cl)c2c(=O)n1-c1ccccc1,IC50,second compound 0.0316 µM,> 100 nM
same,IC50,second compound 0.1 µM,> 100 nM
same,IC50,second compound 0.316 µM,> 100 nM
same,IC50,second compound 1 µM,> 100 nM
same,IC50,second compound 3.16 µM,> 100 nM
same,IC50,second compound 10 µM,> 100 nM
same,"viability, T/C","second compound 0.0316 µM, first compound 0.000316 µM",102%
same,"viability, T/C","second compound 0.0316 µM, first compound 0.001 µM",87.6%
same,"viability, T/C","second compound 0.0316 µM, first compound 0.00316 µM",106%
same,"viability, T/C","second compound 0.0316 µM, first compound 0.01 µM",92.5%
same,"viability, T/C","second compound 0.0316 µM, first compound 0.0316 µM",96.6%
same,"viability, T/C","second compound 0.0316 µM, first compound 0.1 µM",92.6%
same,"viability, T/C","second compound 0.1 µM, first compound 0.000316 µM",91.4%
same,"viability, T/C","second compound 0.1 µM, first compound 0.001 µM",100%
same,"viability, T/C","second compound 0.1 µM, first compound 0.00316 µM",87.5%
same,"viability, T/C","second compound 0.1 µM, first compound 0.01 µM",91.4%
same,"viability, T/C","second compound 0.1 µM, first compound 0.0316 µM",99.1%
same,"viability, T/C","second compound 0.1 µM, first compound 0.1 µM",113%
same,"viability, T/C","second compound 0.316 µM, first compound 0.000316 µM",111%
same,"viability, T/C","second compound 0.316 µM, first compound 0.001 µM",89.2%
same,"viability, T/C","second compound 0.316 µM, first compound 0.00316 µM",94.1%
same,"viability, T/C","second compound 0.316 µM, first compound 0.01 µM",94.5%
same,"viability, T/C","second compound 0.316 µM, first compound 0.0316 µM",99.3%
same,"viability, T/C","second compound 0.316 µM, first compound 0.1 µM",98%
same,"viability, T/C","second compound 1 µM, first compound 0.000316 µM",98.3%
same,"viability, T/C","second compound 1 µM, first compound 0.001 µM",93.5%
same,"viability, T/C","second compound 1 µM, first compound 0.00316 µM",86.5%
same,"viability, T/C","second compound 1 µM, first compound 0.01 µM",93.2%
same,"viability, T/C","second compound 1 µM, first compound 0.0316 µM",102%
same,"viability, T/C","second compound 1 µM, first compound 0.1 µM",89.4%
same,"viability, T/C","second compound 3.16 µM, first compound 0.000316 µM",95.2%
same,"viability, T/C","second compound 3.16 µM, first compound 0.001 µM",95%
same,"viability, T/C","second compound 3.16 µM, first compound 0.00316 µM",99.1%
same,"viability, T/C","second compound 3.16 µM, first compound 0.01 µM",98.6%
same,"viability, T/C","second compound 3.16 µM, first compound 0.0316 µM",105%
same,"viability, T/C","second compound 3.16 µM, first compound 0.1 µM",93.8%
same,"viability, T/C","second compound 10 µM, first compound 0.000316 µM",106%
same,"viability, T/C","second compound 10 µM, first compound 0.001 µM",107%
same,"viability, T/C","second compound 10 µM, first compound 0.00316 µM",106%
same,"viability, T/C","second compound 10 µM, first compound 0.01 µM",108%
same,"viability, T/C","second compound 10 µM, first compound 0.0316 µM",106%
same,"viability, T/C","second compound 10 µM, first compound 0.1 µM",103%
